Entries after “also recorded” stand apart in the source; their conditions may differ.
Key:
[1] = biological target: Tau-FynSH3 interaction (Homo sapiens (Human), UniProt P10636); test: Tau-FynSH3 AlphaScreen; type: binding; conditions: Table 3; read-out: Alpha screen IC50
Outline: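 Purified GST-Fyn-SH3-Strep and His-tagged human 4R2N Tau-Strep from E. coli, tested by AlphaScreen with glutathione donor and nickel chelate acceptor beads in Bis-Tris pH 7.0, TCEP, casein, Tween-20. Compound preincubated 30 min with first protein at 600 nM, then second protein 30 min, then beads 2 h.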

[2] = Solubility; type: physicochemical; conditions: Table 3
[3] = Metabolic stability in human liver microsomes; type: in vitro ADME; conditions: Table 3, read-out: ADME t1/2 (min): HLMt1/2
Source text: (§1) A computational analysis of the top five hits was then completed to assess the physical attributes of the compounds emerging from the HTS. The target profile for drug-like properties included evaluation of molecular weight (MW), total polar surface area (PSA, the surface sum of all polar atoms on the molecule), solubility, metabolic stability, and partition coefficient (LogD). In general, MW<[…] and PSA <70 Å^2 were targeted, which generally allows for blood-brain barrier (BBB) permeability. Compounds with PSA >100 A^2 are generally poor at permeating cell membranes. Solubility was targeted at >10 μM at pH 7.4 and 40-60% of compound remaining after 60 minutes of incubation in mouse or human liver microsomes (an indicator of compound stability after first-pass metabolism). LogD is the log of the ratio of concentrations of a compound in two immiscible solvents at equilibrium. Values ranging from 2-4 were targeted, typical for CNS drugs. Based on these criteria, compound no. 55 was selected as the top hit for optimization. Compound no.

[4] = Metabolic stability in mouse liver microsomes; type: in vitro ADME; conditions: mouse, liver microsomes, Table 3, read-out: ADME t1/2 (min): MLMt1/2
[5] = tested on: primary rat neurons; test: Modified MTT assay of Aβ toxicity in primary neurons; type: cell-based; conditions: Table 3; Aβ toxicity in primary neurons
Source text: Primary neuron cultures: All animal procedures were approved by the Institutional Animal Care and Use Committee at the University of Alabama at Birmingham (UAB). As before (Rush, et al. (2020) Neurobiol Dis 134, 104668; Voskobiynyk, et al. (2020) eLife 9, e57354), primary rat neurons were isolated from timed-pregnant Sprague-Dawley rats. Briefly, dams were euthanized with isoflurane anesthesia asphyxiation, and hippocampal tissue was isolated from E19 embryos in Hibernate E, then digested in papain for 10 minutes at 37° C. Neurons were triturated into a single cell suspension in Neurobasal supplemented with B-27, L-Glutamine, and 10% FBS, then plated in 96-well plates coated with PDL and laminin at 30,000 neurons per well in 200 uL medium or in 24-well coated plates with or without coverslips at 50,000 per well. Cultures were maintained at 37° C. with 5% CO2. Twenty-four hours after plating (DIV1), two 50% media changes with Neurobasal plus B-27 and L-Glutamine without FBS, and 5 μM cytosine β-D-arabinofuranoside was added to prevent glial proliferation. 50% media changes were performed at DIV7 and DIV14 with serum-free supplemented Neurobasal and experiments were started at DIV19.
Aβ oligomer preparation: As before (Rush, et al. (2020) Neurobiol Dis 134, 104668), lyophilized recombinant Aβ42 was dissolved in HFIP, dried overnight, then stored at −20° C. until oligomerization. To oligomerize, Aβ was dissolved in DMSO to 1 mM, then diluted to 100 µM in PBS, then sonicated and left on ice for 24 hours. Immediately prior to use, Aβ was centrifuged at 4° C. for 10 minutes at 14,000×g. Vehicle was prepared as well in identical fashion except lacking the Aβ peptide.
Aβ toxicity assays: The modified MTT and MAP2 assays were adapted from a recent study (Rush, et al. (2020) Neurobiol Dis 134, 104668). Briefly, at DIV19, media on the neurons was reduced to […], then compound was added to final concentration of 0 μM, 0.3 μM, 3 μM, or 15 μM with even amounts of DMSO. After 90-minute pretreatment with compound, 2.5 μM Aβ was added.
The modified MTT assay was performed 24 hours after Aβ application. 100 μM MTT was applied to neurons and incubated at 37° C. for one hour. Media was removed, then replaced with 15 μL 1.6% Tween20 in PBS and incubated on a shaker at 100 rpm for 5 minutes. The Tween was then removed and transferred to a 384-well clear-bottom plate and replaced with 15 μL isopropanol. Plates were again agitated for 5 minutes at RT, then isopropanol was transferred to the 384-well plate. Absorbance was then read at 590 nm on a plate reader, with 660 nm used as a reference. The ratio of Tween soluble MTT to isopropanol soluble (Tween-insoluble) MTT was calculated for each sample, then normalized to the vehicle group average.

[6] = Partition coefficient (LogD); type: physicochemical; conditions: Table 3; read-out: ADME LogD
Source text: as §1

[7] = biological target: Tau-Fyn interaction (Homo sapiens (Human), UniProt P10636); test: Tau-Fyn PLA screening in HEK-293 cells; type: cell-based; conditions: Table 3; Tau-Fyn PLA
Protocol: Tau-Fyn PLA screening in HEK-293 cells: For Tau-Fyn PLA in HEK-293 cells, we used the same plasmids as before (Rush, et al. (2020) Neurobiol Dis 134, 104668): human 4R2N Tau with an N-terminal mKate2 tag in a pcDNA3.1 vector and human Fyn with an N-terminal Myc tag in a pCMV-Sport6 vector grown in Stellar E. coli. HEK-293 cells were plated on coverslips coated with PDL and laminin in a 24-well plate in DMEM supplemented with 10% FBS and 1% PenStrep. Cells were transfected with 125 ng of Tau-mKate2 and Fyn plasmids with 1.5 μL Fugene in plain DMEM. After 24 hours, compound was applied at 15 μM. Twenty-four hours after application, cells were fixed. PLA protocol was the same as above except for different primary antibodies (Tau5 1:500, Fyn3 1:250). After image acquisition, PLA density was calculated as PLA puncta (as above) divided by cell area to account for differences in confluency. Cell area was defined with ImageJ as % Area after theresholding Tau-mKate2 fluorescence because it filled the cells evenly. Puncta/cell area was then normalized to vehicle-treated slides from that experiment.

[8] = Phase IIa, van Dyck et al. 2019; cited from earlier work
[9] = biological target: 97 kinases; test: Eurofins DiscoverX ScanEDGE kinase panel; type: biochemical; conditions: compound no. 69 at 3 μM; saracatinib stock 30 μM = 1000× testing concentration; activity = <35% of control
Source text: 69 and compound no. […] Since Fyn was not included in that panel, a custom panel was completed for Fyn kinase activity.

[10] = tested on: Sam68(PxxP)-FynSH3 interaction; conditions: Oneyama et al. 2002; cited from earlier work

Sequence of Tau-Fyn interaction (P10636 other isoform, or with tags, fused parts or gaps): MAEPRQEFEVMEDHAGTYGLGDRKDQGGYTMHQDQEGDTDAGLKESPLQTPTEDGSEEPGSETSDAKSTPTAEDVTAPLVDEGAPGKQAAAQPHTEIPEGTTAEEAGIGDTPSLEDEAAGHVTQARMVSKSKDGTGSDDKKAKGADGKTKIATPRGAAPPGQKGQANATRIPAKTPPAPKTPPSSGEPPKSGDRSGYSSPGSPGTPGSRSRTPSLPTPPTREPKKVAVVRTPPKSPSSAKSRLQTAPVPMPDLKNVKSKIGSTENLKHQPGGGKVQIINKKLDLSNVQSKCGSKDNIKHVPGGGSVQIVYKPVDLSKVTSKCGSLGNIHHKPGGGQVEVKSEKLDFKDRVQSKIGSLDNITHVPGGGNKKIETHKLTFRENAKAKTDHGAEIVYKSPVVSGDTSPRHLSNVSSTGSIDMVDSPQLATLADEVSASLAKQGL
Sequence of Tau-FynSH3 interaction (P10636 other isoform, or with tags, fused parts or gaps): as above

Compound: O=C(CCN1C(=O)CSc2cc(Cl)ccc21)Nc1nnc(-c2ccccn2)[nH]1 [compound 8, 3-(7-CHLORO-3-OXO-2H-BENZO[B][1,4]THIAZIN-4(3H)-YL)-N-(5-(PYRIDIN-2-YL)-4H-1,2,4-TRIAZOL-3-YL)PROPANAMIDE]
- IC50 [1]: 2720 nM
- ADME Sol (μM) [2]: Sol = 24 μM
- half-life [3]: 62 min
- half-life [4]: 18 min
- MTT [5]: Active
- logD [6]: 2.3

Compound: COc1ccc2c(c1)N(CC(=O)Nc1nnc(-c3ccccn3)[nH]1)C(=O)CS2 [compound 22, 2-(6-METHOXY-3-OXO-2H-BENZO[B][1,4]THIAZIN-4(3H)-YL)-N-(5-(PYRIDIN-2-YL)-4H-1,2,4-TRIAZOL-3-YL)ACETAMIDE]
- ADME Sol (μM) [2]: Sol = 80 μM
- half-life [3]: 150 min
- PLA [7]: Active
- half-life [4]: 56 min
- MTT [5]: Active
- logD [6]: 1.8

Compound: CN1CCN(CCOc2cc(OC3CCOCC3)c3c(Nc4c(Cl)ccc5c4OCO5)ncnc3c2)CC1 [saracatinib, reference compound]
- clinical benefit in AD [8]: showed no clinical benefit in AD at a tolerable dose
- kinase inhibition, panel of 97 kinases [9]: inhibited several Src family kinases; also recorded: inhibits Src, Fyn, Abl, and EGFR kinase activity

Compound: UCS15A
- Sam68(PxxP)-FynSH3 interaction [10]: inhibits Sam68(PxxP)-FynSH3 interaction

From patent US20250367209A1 (SOUTHERN RESEARCH INSTITUTE, priority 2022, published 2025)
